# Experimental data published in ChEMBL document CHEMBL4418299, “Compounds useful as csf1 modulators” (2016).
# Target: Macrophage colony-stimulating factor 1 receptor (Homo sapiens, UniProt P07333)
# Test: Displacement of kinase tracer 236 from recombinant human His-tagged CSF1R cytoplasmic domain (538 to 910 residues) expressed in baculovirus-infected insect cells measured after 5 hrs by TR-FRET based LanthaScreen assay
# Chain of Macrophage colony-stimulating factor 1 receptor (P07333 whole entry, the tested form may be a part): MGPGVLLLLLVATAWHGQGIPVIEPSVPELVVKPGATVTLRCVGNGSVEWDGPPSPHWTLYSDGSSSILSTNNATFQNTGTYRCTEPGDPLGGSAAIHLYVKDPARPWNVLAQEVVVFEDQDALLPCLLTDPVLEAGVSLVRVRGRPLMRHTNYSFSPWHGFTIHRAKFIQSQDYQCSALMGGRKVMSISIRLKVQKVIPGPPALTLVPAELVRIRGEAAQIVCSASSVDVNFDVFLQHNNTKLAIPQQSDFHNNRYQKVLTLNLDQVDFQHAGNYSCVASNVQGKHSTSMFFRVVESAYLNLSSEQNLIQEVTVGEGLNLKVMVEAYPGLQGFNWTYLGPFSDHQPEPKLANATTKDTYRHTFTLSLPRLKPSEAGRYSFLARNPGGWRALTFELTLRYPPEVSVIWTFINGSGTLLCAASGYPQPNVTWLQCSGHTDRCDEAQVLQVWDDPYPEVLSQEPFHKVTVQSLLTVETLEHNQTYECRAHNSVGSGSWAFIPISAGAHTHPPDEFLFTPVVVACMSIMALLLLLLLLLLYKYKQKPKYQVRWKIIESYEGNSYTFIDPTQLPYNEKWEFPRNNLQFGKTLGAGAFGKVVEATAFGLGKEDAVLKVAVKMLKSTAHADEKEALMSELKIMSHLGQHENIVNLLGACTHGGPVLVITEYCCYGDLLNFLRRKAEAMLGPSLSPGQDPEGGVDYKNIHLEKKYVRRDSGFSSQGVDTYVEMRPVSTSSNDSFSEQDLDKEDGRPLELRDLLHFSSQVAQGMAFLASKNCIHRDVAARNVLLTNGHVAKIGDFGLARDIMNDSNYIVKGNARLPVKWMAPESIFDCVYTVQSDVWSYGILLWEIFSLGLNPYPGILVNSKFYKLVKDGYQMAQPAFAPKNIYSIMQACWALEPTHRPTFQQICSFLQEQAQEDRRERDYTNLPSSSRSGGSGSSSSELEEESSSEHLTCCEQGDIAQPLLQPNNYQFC
compound,measurement,value
COc1cc(-n2c3c(c4ncnc(N)c42)CCC3)ccc1NC(=O)Cn1cnc(C(F)(F)F)c1,IC50,10 to 200 nM
COc1cc(-n2c3c(c4ncnc(N)c42)CCC3)ccc1NC(=O)Cc1cc(C(F)F)on1,IC50,< 10 nM
COc1cc(-n2c3c(c4ncnc(N)c42)CCC3)ccc1NC(=O)Cc1nc(C(C)C)no1,IC50,< 10 nM
COc1cc(-n2c3c(c4ncnc(N)c42)COC3)ccc1NC(=O)Cc1ccc(C)c(F)c1,IC50,< 10 nM
CNC(=O)c1ccc(CC(=O)Nc2ccc(-n3c4c(c5ncnc(N)c53)CCC4)cc2OC)cc1,IC50,> 200 nM
Nc1ncnc2c3c(n(-c4ccc(NC(=O)Cc5cc(C(F)(F)F)no5)cc4)c12)CCC3,IC50,< 10 nM
COc1cc(-n2c3c(c4ncnc(N)c42)COC3)ccc1NC(=O)Cn1cc(C(C)(C)C)cn1,IC50,10 to 200 nM
COc1cc(-n2c3c(c4ncnc(N)c42)CCC3)ccc1NC(=O)Cn1cc(C(F)(F)F)cn1,IC50,< 10 nM
COc1cc(-n2c3c(c4ncnc(N)c42)COC3)ccc1NC(=O)Cn1cc(C(F)(F)F)cn1,IC50,10 to 200 nM
COc1cc(-n2c3c(c4ncnc(N)c42)CCC3)ccc1CC(=O)Nc1ccc(C(C)(C)O)nc1,IC50,< 10 nM
COc1ncc(NC(=O)Cc2ccc(-n3c4c(c5ncnc(N)c53)CCC4)cc2)cc1F,IC50,< 10 nM
COc1cc(-n2c3c(c4ncnc(N)c42)CCC3)ccc1CC(=O)Nc1cnn(C)c1,IC50,> 200 nM
COc1cc(-n2c3c(c4ncnc(N)c42)CCC3)ccc1CC(=O)Nc1ccc(C2(O)COC2)cc1,IC50,10 to 200 nM
CC(C)(C)c1ccn(CC(=O)Nc2ccc(-n3c4c(c5ncnc(N)c53)COC4)cc2)n1,IC50,10 to 200 nM
COc1cc(-n2c3c(c4ncnc(N)c42)CCC3)ccc1CC(=O)Nc1ccc2c(c1)COC2(C)C,IC50,< 10 nM
Nc1ncnc2c3c(n(-c4ccc(NC(=O)Cc5cnn(C(F)F)c5)cc4)c12)CCC3,IC50,10 to 200 nM
Nc1ncnc2c3c(n(-c4ccc(NC(=O)Cn5ccc(C(F)(F)F)n5)cc4)c12)COC3,IC50,10 to 200 nM
Nc1ncnc2c3c(n(-c4ccc(NC(=O)Cn5ccc(C(F)(F)F)n5)cc4)c12)CCC3,IC50,< 10 nM
Nc1ncnc2c3c(n(-c4ccc(NC(=O)Cc5ccn(C(F)F)n5)cc4)c12)CCC3,IC50,10 to 200 nM
COc1cc(-n2c3c(c4ncnc(N)c42)CCC3)ccc1NC(=O)Cc1ccc(C(=O)N(C)C)cc1,IC50,10 to 200 nM
COc1cc(-n2c3c(c4ncnc(N)c42)CCC3)ccc1NC(=O)Cc1nnccc1C(F)(F)F,IC50,> 200 nM
COc1cc(-n2c3c(c4ncnc(N)c42)CCC3)ccc1NC(=O)Cc1coc(C(C)C)n1,IC50,< 10 nM
COc1cc(-n2c3c(c4ncnc(N)c42)CCC3)ccc1CC(=O)Nc1ccc(C(C)(C)O)cn1,IC50,10 to 200 nM
COc1cc(-n2c3c(c4ncnc(N)c42)COC3)ccc1NC(=O)Cn1nc(C)cc1C(F)(F)F,IC50,> 200 nM
COc1cc(CC(=O)Nc2ccc(-n3c4c(c5ncnc(N)c53)CCC4)cc2OC)cc(OC)c1,IC50,< 10 nM
COc1cc(-n2c3c(c4ncnc(N)c42)CCC3)ccc1CC(=O)Nc1cnc(C(F)(F)F)nc1,IC50,10 to 200 nM
COc1cc(-n2c3c(c4ncnc(N)c42)COC3)ccc1NC(=O)Cn1cnc(C(F)(F)F)c1,IC50,10 to 200 nM
COc1cc(-n2c3c(c4ncnc(N)c42)CCC3)ccc1NC(=O)Cc1cc(C(F)(F)F)on1,IC50,< 10 nM
COc1cc(-n2c3c(c4ncnc(N)c42)CCC3)ccc1NC(=O)Cc1c(C)noc1C,IC50,> 200 nM
COc1cc(-n2c3c(c4ncnc(N)c42)CCC3)ccc1NC(=O)Cc1cc(C(F)(F)F)no1,IC50,< 10 nM
COc1cc(-n2c3c(c4ncnc(N)c42)CCC3)ccc1CC(=O)Nc1nc(C(F)(F)F)cs1,IC50,< 10 nM
COc1cc(-n2c3c(c4ncnc(N)c42)CCC3)ccc1NC(=O)Cn1nc(C)cc1C,IC50,10 to 200 nM
Cn1ncc(CC(=O)Nc2ccc(-n3c4c(c5ncnc(N)c53)CCC4)cc2)c1C(F)(F)F,IC50,< 10 nM
COc1cc(-n2c3c(c4ncnc(N)c42)COC3)ccc1NC(=O)Cn1ccc(C(C)(C)C)n1,IC50,10 to 200 nM
COc1cc(-n2c3c(c4ncnc(N)c42)CCC3)ccc1NC(=O)Cc1cc(C(F)(F)F)cnn1,IC50,10 to 200 nM
Nc1ncnc2c3c(n(-c4ccc(NC(=O)Cn5cnc(C(F)(F)F)c5)cc4)c12)COC3,IC50,< 10 nM
COc1cc(-n2c3c(c4ncnc(N)c42)COC3)ccc1NC(=O)Cc1ccc(C)cc1F,IC50,< 10 nM
COc1cc(-n2c3c(c4ncnc(N)c42)CCC3)ccc1NC(=O)Cc1cnn(C)c1C(F)(F)F,IC50,< 10 nM
COc1cc(-n2c3c(c4ncnc(N)c42)COC3)ccc1NC(=O)Cn1ccc(C(C)C)n1,IC50,< 10 nM
Nc1ncnc2c3c(n(-c4ccc(NC(=O)Cc5ccn(C(F)F)n5)cc4)c12)COC3,IC50,> 200 nM
COc1cc(-n2c3c(c4ncnc(N)c42)CCC3)ccc1NC(=O)Cc1ccc(C(C)(C)C)cc1,IC50,10 to 200 nM
COc1cc(-n2c3c(c4ncnc(N)c42)COC3)ccc1CC(=O)Nc1ccc(C(F)(F)F)nc1,IC50,< 10 nM
CC(C)c1ccn(CC(=O)Nc2ccc(-n3c4c(c5ncnc(N)c53)CCC4)cc2)n1,IC50,< 10 nM
COc1cc(-n2c3c(c4ncnc(N)c42)CCC3)ccc1CC(=O)Nc1cc(C(F)(F)F)cnn1,IC50,< 10 nM
COc1cc(-n2c3c(c4ncnc(N)c42)CCC3)ccc1NC(=O)CN1CCCc2cc(F)ccc21,IC50,10 to 200 nM
Nc1ncnc2c3c(n(-c4ccc(NC(=O)Cc5ccccc5)c(C(F)(F)F)c4)c12)CCC3,IC50,> 200 nM
COc1ccc(CC(=O)Nc2ccc(-n3c4c(c5ncnc(N)c53)COC4)cc2OC)c(F)c1,IC50,10 to 200 nM
COc1cc(-n2c3c(c4ncnc(N)c42)CCC3)ccc1CC(=O)Nc1ccn(C)n1,IC50,> 200 nM
Nc1ncnc2c3c(n(-c4ccc(NC(=O)Cn5cc(C(F)(F)F)cn5)cc4)c12)CCC3,IC50,< 10 nM
COc1cc(NC(=O)Cc2ccc(-n3c4c(c5ncnc(N)c53)CCC4)cc2OC)cc(C(F)(F)F)c1,IC50,< 10 nM
COc1cc(-n2c3c(c4ncnc(N)c42)COC3)ccc1NC(=O)Cn1ncc2ccccc21,IC50,10 to 200 nM
COc1cc(-n2c3c(c4ncnc(N)c42)COC3)ccc1NC(=O)Cc1cccc(OC)c1C,IC50,< 10 nM
COc1cc(-n2c3c(c4ncnc(N)c42)COC3)ccc1CC(=O)Nc1ccccc1,IC50,> 200 nM
Nc1ncnc2c3c(n(-c4ccc(NC(=O)Cn5cnc(C(F)(F)F)c5)cc4)c12)CCC3,IC50,< 10 nM
COc1cc(-n2c3c(c4ncnc(N)c42)CCC3)ccc1NC(=O)Cc1cc(C(F)(F)F)nn1C,IC50,10 to 200 nM
COc1cc(-n2c3c(c4ncnc(N)c42)COC3)ccc1NC(=O)Cc1cnn(C)c1C(F)(F)F,IC50,> 200 nM
COc1cc(-n2c3c(c4ncnc(N)c42)CCC3)ccc1CC(=O)Nc1ccc2nonc2c1,IC50,< 10 nM
CC(C)(C)c1cnn(CC(=O)Nc2ccc(-n3c4c(c5ncnc(N)c53)COC4)cc2)c1,IC50,< 10 nM
COc1cc(-n2c3c(c4ncnc(N)c42)CCC3)ccc1NC(=O)Cc1cnn(C)c1,IC50,10 to 200 nM
Nc1ncnc2c3c(n(-c4ccc(NC(=O)Cc5nnc(C(F)(F)F)o5)cc4)c12)CCC3,IC50,> 200 nM
COc1cc(-n2c3c(c4ncnc(N)c42)CCC3)ccc1NC(=O)Cn1cc(C(F)(F)F)nc1C,IC50,10 to 200 nM
Nc1ncnc2c3c(n(-c4ccc(NC(=O)Cn5ccc(C6CC6)n5)cc4)c12)CCC3,IC50,< 10 nM
COc1cc(-n2c3c(c4ncnc(N)c42)CCC3)ccc1NC(=O)Cn1ccc(C2CC2)n1,IC50,< 10 nM
Nc1ncnc2c3c(n(-c4ccc(NC(=O)Cc5cc(C(F)F)on5)cc4)c12)CCC3,IC50,10 to 200 nM
COc1cc(-n2c3c(c4ncnc(N)c42)COC3)ccc1NC(=O)Cc1csc(C(C)C)n1,IC50,10 to 200 nM
COc1cc(-n2c3c(c4ncnc(N)c42)CCC3)ccc1NC(=O)Cc1nnn(C(C)(C)C)n1,IC50,< 10 nM
COc1cc(-n2c3c(c4ncnc(N)c42)CCC3)ccc1CC(=O)Nc1cnc(OC)c(F)c1,IC50,< 10 nM
COc1cc(-n2c3c(c4ncnc(N)c42)CCC3)ccc1NC(=O)Cc1csc(C(C)C)n1,IC50,< 10 nM
COc1cc(-n2c3c(c4ncnc(N)c42)CCC3)ccc1NC(=O)Cn1nc(C)cc1C(F)(F)F,IC50,10 to 200 nM
COc1cc(-n2c3c(c4ncnc(N)c42)CCC3)ccc1NC(=O)Cc1cnn(C(F)F)c1,IC50,< 10 nM
Cn1nc(C(F)(F)F)cc1CC(=O)Nc1ccc(-n2c3c(c4ncnc(N)c42)CCC3)cc1,IC50,< 10 nM
COc1cc(-n2c3c(c4ncnc(N)c42)CCC3)ccc1NC(=O)Cn1ccc(C(F)(F)F)n1,IC50,< 10 nM
Nc1ncnc2c3c(n(-c4ccc(NC(=O)Cn5cc(C(F)(F)F)cn5)cc4)c12)COC3,IC50,10 to 200 nM
COc1cc(-n2c3c(c4ncnc(N)c42)CCC3)ccc1CC(=O)Nc1ccc(C(C)(C)OC)nc1,IC50,< 10 nM
COc1cc(-n2c3c(c4ncnc(N)c42)CCC3)ccc1NC(=O)Cc1ccn(C)n1,IC50,> 200 nM
COc1cc(-n2c3c(c4ncnc(N)c42)CCC3)ccc1NC(=O)Cn1ccc(C(C)(C)C)n1,IC50,< 10 nM
CC(C)c1noc(CC(=O)Nc2ccc(-n3c4c(c5ncnc(N)c53)CCC4)cc2)n1,IC50,10 to 200 nM
COc1cc(CC(=O)Nc2ccc(-n3c4c(c5ncnc(N)c53)COC4)cc2OC)cc(OC)c1,IC50,10 to 200 nM
CC(C)(C)c1cnn(CC(=O)Nc2ccc(-n3c4c(c5ncnc(N)c53)CCC4)cc2)c1,IC50,< 10 nM
COc1cc(-n2c3c(c4ncnc(N)c42)COC3)ccc1NC(=O)Cn1ccc(C(F)(F)F)n1,IC50,10 to 200 nM
COc1cc(-n2c3c(c4ncnc(N)c42)CCC3)ccc1CC(=O)Nc1ccc(C(C)(C)C)cc1,IC50,< 10 nM
COc1cc(-n2c3c(c4ncnc(N)c42)CCC3)ccc1NC(=O)CN1CCOc2ccccc21,IC50,10 to 200 nM
COc1cc(-n2c3c(c4ncnc(N)c42)CCC3)ccc1NC(=O)Cc1ccn(C(F)F)n1,IC50,< 10 nM
Nc1ncnc2c3c(n(-c4ccc(NC(=O)Cc5cc(C(F)(F)F)on5)cc4)c12)CCC3,IC50,< 10 nM
COc1cc(-n2c3c(c4ncnc(N)c42)COC3)ccc1NC(=O)Cc1cc(C(F)(F)F)on1,IC50,10 to 200 nM
Nc1ncnc2c3c(n(-c4ccc(NC(=O)Cc5ccccc5)c(OC(F)(F)F)c4)c12)CCC3,IC50,> 200 nM
Nc1ncnc2c3c(n(-c4ccc(NC(=O)Cc5ccccc5)c(Cl)c4)c12)CCC3,IC50,> 200 nM
COc1cc(-n2c3c(c4ncnc(N)c42)CCC3)ccc1NC(=O)Cc1ccc2c(c1)CN(C)C2=O,IC50,> 200 nM
COc1cc(-n2c3c(c4ncnc(N)c42)CCC3)ccc1NC(=O)Cn1cc(C)cn1,IC50,< 10 nM
CNC(=O)c1cccc(NC(=O)Cc2ccc(-n3c4c(c5ncnc(N)c53)CCC4)cc2OC)c1,IC50,10 to 200 nM
COc1cc(-n2c3c(c4ncnc(N)c42)COC3)ccc1NC(=O)Cc1csc(C(C)(C)C)n1,IC50,10 to 200 nM
